The values below come from patent US20160051526A1, “The Local Treatment of Inflammatory Ophthalmic Disorders” (CRESSET BIOMOLECULAR DISCOVERY LTD, priority 2013, published 2016).

Each structure is given as a SMILES string.

The test system of assay [1] is male C57BL/6 mice. In words: Murine model of endotoxin induced uveitis. In kind it is in vivo, mouse. Conditions: 0.1 μg intravitreal co-injected with LPS; about 15 hours after endotoxin; FIG. 5. The method, then: The efficacy of locally applied Nalidixic acid as a potential treatment for uveitis was explored. Experimental uveitis was induced in male C57BL/6 mice (n=5 animals per group) by the intravitreal injection of the endotoxin lipopolysaccharide (LPS 0.5 ng/ml) co-injected with either vehicle (phosphate buffered saline) or Nalidixic acid at a final concentration of 0.1 μg into alternate eyes. The other eye acting as control. The inflammatory response in this model is characterised by invasion of inflammatory cells and in particular invasion of neutrophils into the retina peaks at approximately 15 hours after endotoxin treatment at which time the animals were culled. Retinas from the animals were dissected and digested into a single cell suspension. Cell numbers from retinal tissue were measured by fluorescence-activated cell sorting (FACS) analysis.

Assay [2] relates to Human cord derived mast cells. In words: Inhibition of Prostaglandin D2 release from human mast cells. The note with it: IgE challenged human cord derived mast cells; FIG. 2. In kind it is cell-based. The method, then:
Human cord derived mast cells were cultured using the methodology described in Example 1. A commercially-available enzyme immunoassay (Cayman Chemical, Michigan, USA) was used to detect and quantify PGD2 released in the supernatant. The assay was conducted following the manufacturer's standard protocols. A standard curve ranging from 78-10,000 pg/ml PGD2 was prepared using the reagent provided and the optical density was then read within 60 min in a microplate reader (at 405 nm).

The subject of assay [3] is Mice (Balb/C strain). Nature of the assay: Murine model of allergic conjunctivitis (ragweed pollen). In kind it is in vivo, mouse. Conditions: 40 μl of a 2% solution twice daily to the eye. The method, then:
Mice (Balb/C strain) were sensitised to ragweed pollen by injection of the extract mixed with alum into the hind paw. A control group was immunised with alum alone. Five animals were used in each group.
Eleven days after the initial immunisation with ragweed pollen extract the mice were challenged daily with Ragweed pollen by application to the eye (150 mg/ml antigen) and dosed twice daily (prior and after challenge with ragweed extract) with either Phosphate buffered saline (PBS, control) or 40 μl of a 2% solution of Nalidixic acid. All applications were to the left eye with the right eye acting as a control.
Conjunctivitis was assessed on the 10th day 1 hour after the final application of the ragweed antigen. This assessment was performed by an operator unaware of the dosing protocol for the animals.
Clinical scores of each group were compared statistically using the non-parametric Kruskal-Wallis test with Dunns multiple comparison test correction applied (FIG. 4).
In addition, histological analysis of sections of the conjunctiva was used to assess the number of migrating eosinophils into the tissue, a key measure of the inflammatory process.

Assay [4] relates to phosphatase PP2A. In words: Inhibition of the phosphatase PP2A. In kind it is biochemical. The note with it: statement in summary, no method or data given.
Assay [5] relates to Human cord derived mast cells. In words: Release of Annexin-A1 from human mast cells (ELISA). The note with it: increasing concentrations, conditioned medium, FIG. 3. The class given is cell-based. The method, then: Human cord derived mast cells were cultured using the methodology described in Example 1. Anx-A1 protein levels in conditioned medium were determined by ELISA. Briefly, 96-well flat-bottomed ELISA plates (Greiner, Gloucestershire, UK) were coated with 1 μg anti-Anx-A1 mAb 1B in bicarbonate buffer (pH 9.6) and incubated overnight at 4° C. After washing in the bicarbonate buffer, potentially uncoated sites were blocked with 100 μL of PBS containing 1% BSA for 1 h at room temperature. Sample aliquots (100 μL) or Anx-A1 standard solutions (prepared in 0.1% Tween-20 in PBS; concentration ranging between 10 and 0.001 μg/mL) were added for 1 h at 37° C. After extensive washing in PBS/Tween-20, 100 μL of a polyclonal rabbit anti-human Anx-A1 serum (Zymed, Invitrogen, Paisley, UK; diluted 1:1000 in PBS/Tween-20) was added (1 h at 37° C.) prior to incubation with donkey anti-rabbit 1 gG conjugated to alkaline phosphatase (1:1000; Sigma). The colour was developed by addition of 100 μL p-nitrophenyl phosphate (1 mg/mL in bicarbonate buffer, pH 9.6). Absorbance was read at 405 nm (with a 620-nm reference filter) in a microplate reader (TitertekTM, Vienna, Austria). Anx-A1 levels in the study samples were read against the standard curve and expressed as ng/ml.
A general note: An ELISA detects its analyte on a solid surface through an enzyme-linked reagent.

Assay [6] deals with Human derived cord mast cells. In words: Inhibition of histamine release from human mast cells. The class given is cell-based. The note with it: IgE challenged human cord derived mast cells, 5 min incubation; FIG. 1. The method, then: Protocol: Human derived cord mast cells were cultured using the following method. Commercially available CD34^+ stem cells were cultured for […] in StemSpan (StemCell Technologies, Grenoble, France) serum-free medium supplemented with 100 ng/ml human SCF, 50 ng/ml IL-6 and 1 ng/ml IL-3, and 100 μg/ml penicillin/streptomycin (Peprotech, London, UK). After eight weeks, cells were cultured in StemSpan with 10% FCS. The cells were passaged into new medium every week. Cells were used for experiments between 11 and 18 weeks following confirmation by microscopic examination, c-kit and FcRε1 staining (by FACS), of mast cell morphology. For assessment of drug effects, Nalidixic acid was incubated for 5 min with aliquots of 2×10^5 CDMCs (cord derived mast cells) cultured in 10% FCS medium. A commercially-available enzyme immunoassay was used to detect and quantify histamine released in the supernatant (SPI bio, Strasbourg, France). The assay was conducted following the manufacturer's standard protocols. A standard curve ranging from 0.39-50 nM histamine was prepared using the reagent provided and the optical density was then read within 60 min in a microplate reader (at 405 nm). In some cases, the total cell content of histamine was established by freeze thawing of cells prior to challenge.

As to `CCn1cc(C(=O)O)c(=O)c2ccc(C)nc21` [Nalidixic acid], the “invading neutrophils in retinal tissue (FACS)” value in assay [1] is reported as “clear reduction in invading neutrophils”. Further, the “inhibition of the inflammatory prostanoid PGD2 release” value in assay [2] is given as “dose related inhibition”. For the same compound, the “clinical scores of conjunctivitis” value in assay [3] (assessed 10th day, 1 hour after final ragweed challenge, FIG. 4) is “significant attenuation of the development of conjunctivitis”. For the same compound, in assay [3] (p<0.001 vs immunised PBS control), the “number of migrating eosinophils in conjunctival tissue (histology)” value is reported as “no migrating eosinophils”. Also, the “inhibition of the phosphatase PP2A” value in assay [4] is “potent inhibitors”. Further, the “Annexin-A1 released from human mast cells” value in assay [5] is “increase”. For the same compound, the “inhibition of the inflammatory mediator histamine (% net histamine release)” value in assay [6] is “dose related inhibition”.
